Test results reported in patent US20200085831A1, “NASAL COMPOSITIONS STIMULATING CILIARY ACTIVITY” (Innotesto BVBA, priority 2013, published 2020).

Columns and labels:
[1] = adult population, Nawrot et al. 2003, cited from earlier work
[2] = tested on: ciliated cells; experiment: In vitro experiments with ciliated cells (ascorbic acid); assay type: cell-based; settings: several in vitro experiments
Protocol: When ascorbic acid is added to the present disclosure composition, the pH of the final composition should be adapted to values between about 6-8 and preferably between about pH 7-7.5 by adding a small amount of sodium bicarbonate or other pH regulating agents.

SMILES	daily intake not associated with adverse effects [1] [mg per day]	daily intake not associated with adverse effects, per bodyweight ([1]; equivalent of the mg per day level)	effect on the ciliary beat frequency [2]
Cn1c(=O)c2c(ncn2C)n(C)c1=O [Caffeine, 1,3,7-trimethylxanthine]	< 400	about 6 mg/kg bodyweight	–
O=C1O[C@H]([C@@H](O)CO)C(O)=C1O [ascorbic acid]	–	–	increases the ciliary beat frequency
